Read-outs that look alike come from different tables or passages of the source.
Key:
[1] = system: Glutenin 60-110 kDa; test: Reductant specificity of glutenins, mBBr/SDS-PAGE; format: biochemical, Triticum durum
Method: (§1) For isolation of insoluble storage proteins, semolina (0.2 g) was extracted sequentially with 1 ml of the following solutions for the indicated times at 25° C.: (1) 50 mM Tris-HCl, pH 7.5 (20 min); (2) 70% ethanol (2 hr); and (3) 0.1 M acetic acid (2 hr). During extraction, samples were placed on an electrical rotator and, in addition, occasionally agitated with a vortex mixer. After extraction with each solvent, samples were centrifuged (12,000 rpm for 5 min) in an Eppendorf microfuge and, supernatant fractions were saved for analysis. In between each extraction, pellets were washed with 1 ml of water, collected by centrifugation as before and the supernatant wash fractions were discarded. By convention, the fractions are designated: (1) albumin/globulin; (2) gliadin; and (3) glutenin.
(§2) Reactions were carried out in 100 mM Tris-HCl buffer, pH 7.9. As indicated, 0.7 μg NTR and 1 μg thioredoxin (both from E. coli unless specified otherwise) were added to 70 μl of this buffer containing 1 mM NADPH and 10 μg of target protein.
(§3) SDS-polyacrylamide electrophoresis of the mBBr-derivatized samples was performed in 15% gels at pH 8.5 as described by Laemmli, U. K. (1970), Nature 227:680-685. Gels of 1.5 mm thickness were developed for 16 hr. at a constant current of 9 mA.
(§4) The Polaroid negatives of fluorescent gels and prints of wet protein stained gels were scanned with a laser densitometer (Pharmacia-LKB UltroScan XL). Fluorescence was quantified by evaluating peak areas after integration with GelScan XL software.

[2] = system: Glutenin 30-40 kDa; test: Reductant specificity of glutenins, mBBr/SDS-PAGE; format: biochemical, Triticum durum
Method: as §1, §2, §3, §4

[3] = system: dogs sensitized to cow's milk; test: Skin tests, ED50 and relative allergenicity (Example 44); format: in vivo, dog; details: all dogs tested
Method: Reduction and Blocking of Protein Disutfide Bond. […] Following gel filtration with a Sephadex G-25 column (Amersham Pharmacia) to remove reductants, the reduced protein (less than 0.25 mg/ml) was incubated either without addition or with 10 mM oxidized glutathione (GSSG) or 10 mM cystamine for 3 days on ice. The mixtures were then subjected to a second gel filtration on a Sephadex G-25 column to remove excess GSSG and cystamine. If necessary, the resultant preparations were concentrated by ultrafiltration with Centricon YM-3 filter (Millipore). Heat treatment of NTS-reduced BLG was carried out for 1 hour at 55° C. after reduction at 4° C. overnight. Raw cow's milk (47 mg protein/ml) was reduced with 50 mM DTT and blocked with cystamine and GSSG as described above for BLG. Heated milk was prepared by incubation for 1 hour at 55° C. and gel filtration with A Sephadex G-25 column.
Skin Tests. The background of the dog colony, immunization schedule and procedure for skin testing have been previously described in Examples 36-39 and also in del Val et al., 1999, Buchanan et al., 1997, Ermel et al., 1997, Frick and Brooks, 1983, herein incorporated by reference. Here, 3 litters of the 7th generation designated 7FA, 7FB and 7FC were immunized with commercial preparations (Bayer) of cow's milk, soybean and other food extracts (wheat or barley and walnut, Brazil nut and peanut) and also ragweed pollen. BLG samples for testing were prepared in half-log dilutions with PBS; 100 μL of each dilution was injected intradermally on the dog's abdomen.
Estimation of Relative Allergenicity. Wheal area of each spot was plotted by the Lineweaver-Burk double-reciprocal plot to obtain the maximum wheal area. The log of the dose of BLG that effects a half-maximum of wheal area with the control sample, termed Effective Dose 50 (ED50), was calculated and used for statistical analysis. For simplification, ratio of the reciprocal of ED50 to that of the control sample is presented below as relative allergenicity.

[4] = system: allergic dogs; test: Skin tests with giant ragweed pollen extract; format: in vivo, dog
Method: Reduction of pollen proteins by the thioredoxin system. Giant ragweed allergen extract, purchased from Bayer Inc., was analyzed for protein by the Bradford assay using bovine γ-globulin as standard (Wong, J. H. et al. (1995) “Thioredoxin and seed proteins” Methods Enzymol 252:228-240). […] The extent of reduction was determined by the SDS-PAGE/monobromobimane procedure as previously described above and also as described by Wong et al. (Ibid.). Gels were visualized under U.V.
Skin tests. Procedures to measure the type I hypersensitivity reaction by skin tests in allergic […] were substantially the same to those previously described above (see, Examples 36, 37 and 39). In brief, Evans blue dye 0.5% (0.2 ml/kg) was injected intravenously 5 minutes prior to skin testing. Aliquots of 0.1 ml of pollen allergen extract were injected intradermally on ventral abdominal skin in half-log dilutions. Skin tests were read blindly by the same experienced blinded observer scoring two perpendicular diameters for each blue spot. Appropriate negative controls (diluted in PBS) were included for each animal tested.
Data analysis. The statistical significance of the skin test results showing the thioxedoxin-linked mitigation of pollen allergens was determined by paired one-tailed, t-tests. […] The t-tests were completed for each dilution series (0.07 to 219 ng allergen) at 0.05 level of significance on all sensitive dogs (df≅8).

[5] = system: trypsin; test: Trypsin proteolysis of purified milk allergens; format: biochemical; details: 10 μg NTS reduced protein, 2 μg trypsin
Method: The analysis of the reduction was done using the mBBr/SDS-PAGE techniques. Further in this study, when 10 μg of an NTS reduced purified milk allergen protein, β-lactoglobulin (Sigma Chemical Co.), was treated with 2 μg of trypsin, proteolysis was 100% as compared with only 50% for the identically trypsin treated oxidized β-lactoglobulin. […] However, 10 μg of purified α-lactalbumin reduced by the NTS was proteolyzed 80% by trypsin. Also 10 μg of α-lactalbumin reduced by 0.8 μg of thioredoxin and 0.5 mM DTT was 100% proteolyzed by 2 μg of trypsin.

N[C@@H](CCC(=O)N[C@@H](CS)C(=O)NCC(=O)O)C(=O)O [Glutathione, glutathione, reference compound]
Glutenin, % Relative Reduction, 60-110 kDa [1]: 31% | Glutenin, % Relative Reduction, 30-40 kDa [2]: 29%

NTS-reduced & heated: BLG heated for 1 hour at 55° C. following NTS-reduction at 4° C. overnight
times less allergenic than native (control) BLG, from ED50 [3]: about 5 times

NTS/CYM: BLG treated with cystamine following NTS-reduction
times less allergenic than native (control) BLG, from ED50 [3]: about 2.5 times

NTS/GSSG: BLG treated with GSSG following NTS-reduction
times less allergenic than native (control) BLG, from ED50 [3]: about 2.5 times

Thioredoxin: E. coli thioredoxin reduced by NADPH and NTR
Mitigation of skin test response ([4]; Allergen 0.07 ng): Not Signiticant | Mitigation of skin test response ([4]; Allergen 0.22 ng): Not Significant | Mitigation of skin test response ([4]; Allergen 0.66 ng): Significant | Mitigation of skin test response ([4]; Allergen 2.2 ng): Significant | Mitigation of skin test response ([4]; Allergen 6.6 ng): Significant | Mitigation of skin test response ([4]; Allergen 22 ng): Significant | Mitigation of skin test response ([4]; Allergen 66 ng): Significant | Mitigation of skin test response ([4]; Allergen 219 ng, paired one tail t test, P 0.05): Not Significant | Glutenin, % Relative Reduction, 60-110 kDa ([1]; thioredoxin (NTS) = 100): 100% | Glutenin, % Relative Reduction, 30-40 kDa ([2]; thioredoxin (NTS) = 100): 100%

B1: α-lactalbumin: purified milk allergen (Sigma) (protein, UniProt P00711 20-142, looked up)
Alpha-lactalbumin: EQLTKCEVFRELKDLKGYGGVSLPEWVCTTFHTSGYDTQAIVQNNDSTEYGLFQINNKIWCKDDQNPHSSNICNISCDKFLDDDLTDDIMCVKKILDKVGINYWLAHKALCSEKLDQWLCEKL
proteolysis by trypsin [5]: 80%

B2: Glutaredoxin: E. coli glutaredoxin with NADPH, reduced glutathione and glutathione reductase (NGS) (protein, UniProt P68688 1-85, looked up)
Glutaredoxin 1: MQTVIFGRSGCPYCVRAKDLAEKLSNERDDFQYQYVDIRAEGITKEDLQQKAGKPVETVPQIFVDQQHIGGYTDFAAWVKENLDA
modifications: with NADPH, glutathione, glutathione reductase
Glutenin, % Relative Reduction, 60-110 kDa ([1]; thioredoxin (NTS) = 100): 50% | Glutenin, % Relative Reduction, 30-40 kDa ([2]; thioredoxin (NTS) = 100): 40%

Source: patent US20040091578A1 (priority 2001, published 2004)
